Laboratory results taken from PMC5676566 (Nature chemical biology, 2017).

Target: BG505 Env (pseudovirus) (Human immunodeficiency virus 1, UniProt Q2N0S5)
Test: pseudovirus neutralization, TZM-bl cells, luciferase
Format: cell-based
Conditions: 1% DMSO; separate panel assay printed too (Supplementary Table 1)

In the case of COc1ccnc2[nH]cc(C(=O)C(=O)N3CCN(C(=O)c4ccccc4)C[C@H]3C)c12 [BMS-378806], the IC50 is reported as 1190 nM.
